Among the data in patent US4956376A, “Tetrazole carboxylic acids and esters and inhibition of blood platelet aggregation therewith” (Bristol-Myers Squibb Company, priority 1990, dated 1990) are IC50 values, retold here.

For orientation: IC50 means the midpoint of a concentration-inhibition curve.

Molecules are shown by their SMILES. ≈ marks a conversion by molar mass, not a printed value. Like-named read-outs stand apart in the source and are kept apart here.

The subject of the experiment is human platelet aggregation. The experiment is classed as cell-based. The conditions noted are these: human platelet rich plasma, ADP 0.5 mcg/mL.
The mark [1] stands for this setting: Table 2, read-out: Inhibition of Human Platelet Aggregation of Formula II Compounds (IC50) Vs ADP.
[2] abbreviates: Table 1, read-out: Inhibition of Human Platelet Aggregation of Formula I Compounds (IC50) vs. ADP.

Experimental: The aggregometer method of Born, C. […] Clin. Med. 1964, 64, 548-599 was used to assess the in vitro activity of the various compounds as to the inhibition of adenosine diphosphate (ADP) and collagen-induced platelet aggregation. The human volunteer donor's arm is cleansed with 70% ethyl alcohol. A sterile 20 ml syringe and needle are used to withdraw 20 ml of blood. The blood is immediately added to a test tube containing 3.8% sodium citrate to prevent clotting (1 part citrate to 9 parts blood).
Platelet rich plasma (PRP) was separated by centrifugation for 10 minutes at 1000 rpm (140 xg) from citrated (3.8%) human blood. All glassware used for preparation of PRP is silicon treated. ADP in final concentration of 0.5 mcg/mL or 0.05 mL of a collagen suspension prepared according to the method described by Evans, G., et al., J. Exp. Med., 1968, 128, 877-894 was used to induce aggregation. The various compounds tested were dissolved in dimethylsulfoxide (DMSO) so that 5 mcl added to the platelet rich plasma would yield the desired test concentration. Vehicle control trials were done and compared with aggregation induced in platelet rich plasma containing various concentrations of the test compounds. Dose response curves were obtained and Inhibitor Concentration (IC50) values calculated.

Take `O=C(O)COc1cccc(CCn2nnc(C(c3ccccc3)c3ccccc3)n2)c1` [Example 4, [3-[2-[5-(Diphenylmethyl)-2H-tetrazol-2-yl]ethyl]phenoxy]-acetic Acid]: the IC50 under setting [1] amounted to 1.4 µg/mL (≈ 3.38 µM).
Regarding `COC(=O)CCCCCCCCn1nnc(C(c2ccccc2)c2ccccc2)n1` [Example 1, Methyl 5-(diphenylmethyl)-2H-tetrazole-2-nonanoate], the IC50 under setting [2] is more than 32 µg/mL.
Still for that read-out and setting: the figure for `O=C(O)CCCCCCCCn1nnc(C(c2ccccc2)c2ccccc2)n1` [Example 2, 5-(Diphenylmethyl)-2H-tetrazole-1-nonanoic acid] is 4.2 µg/mL (≈ 10.7 µM).
With `COC(=O)COc1cccc(CCn2nnc(C(c3ccccc3)c3ccccc3)n2)c1` [Example 3, Methyl [3-[2-[5-(diphenylmethyl)-2H-tetrazol-2-yl]ethyl]-phenoxy]acetate], under setting [1], the IC50 was 0.9 µg/mL (≈ 2.1 µM).
